Measured values published in patent publication US12454703B2, “Controllable transcription” (Cambridge Enterprise Limited (GB/GB), priority 2016, dated 2025).

What was measured:
induced myocytes = assay: Contraction of induced skeletal myocytes; format: cell-based, human; settings: nanomolar concentrations
[1] = tested on: EGFPd2 homozygous sOPTiKO hESCs; assay: Inducible CRISPR/Cas9 knockout of EGFPd2 reporter in hESCs; format: cell-based, human
Experimental: For single site OPTIKO, AAVS1 targeting was performed by nucleofection. hESCs pre-treated for 16 h with 10 μM Y-27632 (Tocris) were dissociated to clumps of 2-8 cells using Accutase (Gibco), and 2×10^6 cells were nucleofected in 100 μl with a total of 12 μg of DNA (4 μg each for the two ZFN plasmids, and 2 μg each for the two targeting vectors) using the Lonza P3 Primary Cell 4D-Nucleofector X Kit and the cycle CA-137 on a Lonza 4D-Nucleofector System, all according to manufacturer's instructions. Nucleofected hESCs were plated onto a feeder layer of irradiated DR4 (puromycin and neomycin resistant) mouse embryonic fibroblasts and cultured in KSR media supplemented with 4 ng ml-1 FGF2 and 10 μM Y-27632 (this last only for the first 24 h). After 4 days, hPSC colonies carrying both puromycin and neomycin resistance gene were selected for 7-10 days with 25 μg ml-1 of Geneticin (G418 Sulfate, Gibco) and 0.5 μg ml-1 Puromycin. Individual clones were then picked and expanded in feeder-free conditions.
Unless otherwise described in the figure legends or Examples, tetracycline hydrochloride (sigma-Aldrich) was used at 1 μg ml^−1 to induce gene knockdown or knockout. Induction of neurons Pluripotent OPTi-NGN2 cells were dissociated into single cells with TrypLE and plated onto Matrigel (35 μg/cm^2, Scientific Laboratory Supplies) coated dishes at a density of 75.000 cells per well of a 12 well plate. […] After 2 days of induction, the medium was switched to Neurobasal-medium supplemented with Glutamax (100×), B27 (50×, Gibco), BDNF (10 ng/ml, Peprotech), NT3 (10 ng/ml, R&D Systems), Penicillin/Streptomycin (1%), and doxycycline (1 μg/ml).

Experimental for OPTi-MYOD1 hPSCs: Pluripotent OPTi-MYOD1 cells were dissociated into single cells with TrypLE and plated onto gelatine/MEF-medium coated dishes at a density of 100.000 cells per well of a 12 well plate. Forward programming was initiated 24-48 hours after the split. […] After 5 days of induction, the medium was supplemented with CHIR99021 (3 μM, Tocris) and heat-inactivated horse serum (2%, Gibco) to enhance maturation.
For analysis of EGFP expression cells were harvested with TrypLE Select (Gibco) for 5-10 minutes at 37° C. to obtain a single cell suspension. Following a wash with PBS, cells were resuspended in ice-cold PBS supplemented with DAPI (10 μg/ml), and incubated for 5 minutes on ice. Cells were analyzed using a Cyan ADP flow-cytometer to determine the levels of EGFP expression of viable cells (DAPI negative). For staining and analysis of myosin heavy chain expression cells were harvested with TrypLE Select (as for EGFP expression analysis), washed once with PBS, and fixed and permeabilized with Cytofix/Cytoperm solution (BD Biosciences). Subsequently, cells were washed and blocked in Perm/Wash buffer (BD Biosciences) supplemented with 3% bovine serum albumin (BSA) at +4° C. overnight. […] After three washes with Perm/Wash buffer cells were analyzed with a Cyan ADP flowcytometer to determine the levels of MHC expression. […]

In the case of CC1=C(/C=C/C(C)=C/C=C/C(C)=C/C(=O)O)C(C)(C)CCC1 [all-trans retinoic acid], the “conversion into myogenin and myosin heavy chain (MHC) double-positive myocytes” value (OPTi-MYOD1 hPSCs; in conjunction with MYOD1 overexpression, by day 5 after induction) is reported as “rapid and near-complete conversion” and the “nature of the RA effect on myocyte conversion” value (OPTi-MYOD1 hPSCs; mediated through RA-receptor isoforms RARa and RARB) is reported as “concentration dependent”.

For C[N+](C)(C)CCOC(N)=O [carbachol], the muscle fiber contraction (induced myocytes) was “complete muscle fiber contraction”.

For CN(C)[C@@H]1C(O)=C(C(N)=O)C(=O)[C@@]2(O)C(O)=C3C(=O)c4c(O)cccc4[C@@](C)(O)[C@H]3C[C@@H]12 [tetracycline], the “reduction in EGFPd2 fluorescence” value ([1]; five days following tetracycline induction, EGFPd2 homozygous cells) was 50%, the knockout ([1]; optimal gRNA sequence, 2 days of induction) was “up to 90%” and the “EGFPd2 homozygous cells with full loss of EGFPd2 fluorescence” value ([1]; prolonged treatment with tetracycline) was “up to 75%”. For the same compound, the knockout efficiency ([1]; simultaneous induction of three copies of the same gRNA) was 95%.
